This note sets out measurements from patent US20250305004A1, “ENHANCING GENE TARGETING EFFICIENCY IN HUMAN CELLS WITH DNA-PK INHIBITOR TREATMENT” (The Board of Trustees of the Leland Stanford Junior …, priority 2022, published 2025).

One series concerns CFTR locus in HBECs. Nature of the series: RNP/AAV6 gene targeting at CFTR locus in HBECs. The format is cell-based, human. Conditions: 0.5 μM. As for the experimental part:
(§1) ICE analysis for quantification of gene editing.
Cell culture and genome editing of HBECs. Human bronchial epithelial cells (HBECs) were obtained from Lonza Inc., the Primary Airway Cell Biobank at McGill University, the Cystic Fibrosis Foundation Cell Bank or the University of North Carolina. […] Cells were cultured at 37° C. in 5% 02 and 5% CO2.

The test system of a further series is HSPCs. Conditions: 72 h post-gene targeting at CCR5, HBA1 and HBB loci; 0.5 μM. As for the experimental part: Cell viability measurement. MTT assay was used for measuring the gene edited PSC viability. […] After this incubation, MTT was removed, and cells were lysed using 100 μl of lysis buffer (0.1N HCl and 0.5% SDS in isopropanol). After lysis, absorbance was measured at 570 nm with 650 nm as the reference using a SpectraMax M3 plate reader (Molecular devices). The absorbance values were used to calculate the cell viability of gene edited cells as a percentage relative to the mock cells. […] Viable cell counts were represented as percentage relative to the mock or untreated cells as indicated.

The next series deals with STING1 locus in HSPCs. Put plainly: RNP/AAV6 gene targeting at STING1 locus in HSPCs. In kind it is cell-based, human. The conditions noted are these: seemingly inactive gRNA (sg5).
Text: as §1
CD34+ HSPC culture and genome editing.

Series [1] has as its system LT-HSC and MPP populations. Nature of the series: Gene targeting at CCR5 locus in FACS sorted LT-HSC and MPP. The format is cell-based, human. The conditions noted are these: flow cytometry for GFP; 0.5 μM. (A flow cytometer gives signals particle by particle.)
A further series concerns HBA1 locus in PSCs. Nature of the series: RNP/AAV6 gene targeting / gene replacement at HBA1 locus in PSCs. Conditions: 0.5 μM. In kind it is cell-based, human. As for the experimental part:
(§2) Gene targeting efficiency was measured by droplet digital PCR (ddPCR) and flow cytometry (for GFP) to measure the allelic targeting efficiency (FIG. 2B) and percentage of targeted cells (FIG. 2C) respectively. […] The treatment was carried out for 24 hours post gene targeting and the efficiency was calculated 1 week post gene targeting using ddPCR analysis.
(§3) First, we tested the treatment for editing the sickle cell disease (SCD) and cystic fibrosis (CF) mutations at HBB and CFTR loci respectively using the previously described Cas9 RNP and AAV6 donor reagents in WT PSC^71-73 (FIG. 19a-d).
(§4) PSC culture and genome editing. […] For each nucleofection, RNP complex was prepared with 5 μg of Cas9 protein and 2 μg of gRNA and incubated for 15 mins at room temperature. PSCs were dissociated into single cells using Accutase (Innovative Cell Technologies, cat: AT104). […] Resuspended cells were added to one well of a 16-well Nucleocuvette Strip (Lonza) and nucleofection was performed in the 4D nucleofector (Lonza) using the program, CA137. Nucleofected PSCs were plated in mTeSR1 medium supplemented with 10 μM of Y27632 at a density of 100,000 cells per well in 48-well plate, AAV6 vector and DNA-PKcs inhibitors were added to the medium at indicated concentrations. […] From the following day, PSCs were cultured in mTeSR1 without Y27632. Gene targeting efficiency was analyzed at 4-6 days post-editing.
(§5) ddPCR analysis of targeted integration. Gene targeting efficiency for the knock-in of multi-kb sequences was measured through digital droplet PCR (ddPCR) analysis. […] After PCR, the droplets were analyzed using the QX200 Droplet Digital PCR reader (Biorad) and Quantasoft software was used to determine the number of copies of the target and reference DNA in the droplets. The allelic gene targeting efficiency was calculated as the percentage of target DNA copies relative to that of the reference. […]
(§6) ICE analysis for quantification of gene editing. […] Following PCR, the amplicons were detected on agarose gel and purified from the gel using GeneJet Gel Extraction Kit (Thermo Fisher Scientific, cat: K0692). […]

In the next series the test system is CCR5 locus in B cells. Nature of the series: RNP/AAV6 gene targeting at CCR5 locus in B cells. The format is cell-based, human. The conditions noted are these: different concentrations (4, 2, 1, 0.5 and 0.1 μM); ddPCR. As for the experimental part:
B cell culture and genome editing. […] B cells were cultured at 37° C., 5% CO2, and ambient oxygen levels.
For genome editing, gRNA targeting CCR5 was complexed with Cas9 protein were complexed at a 2.5:1 ([…]) molar ratio at room temperature for 20 min. […] Cells were then replated at 1 million cells/ml in complete B cell activation media. […] Gene targeting was assessed at 3-days post-editing.

For a further series, the system named is CCR5 locus in HSPCs. Put plainly: RNP/AAV6 gene targeting at CCR5 locus in CD34+ HSPCs. The format is cell-based, human. The conditions noted are these: two stop codons; sg1 and sg4. As for the experimental part:
ddPCR analysis of targeted integration. Gene targeting efficiency for the knock-in of multi-kb sequences was measured through digital droplet PCR (ddPCR) analysis. For this, genomic DNA was extracted from cells using the QuickExtract™ DNA Extraction Solution (QE) (Lucigen, Cat: QE09050). Pellets of 100,000 to 200,000 cells were resuspended in 40 to 50 μl of QE solution. This cell suspension was incubated at 65° C. for 6 mins and then 100° C. for 10 mins. The quick extracted genomic DNA was digested with either BamHI-HF or HindIII-HF (NEB) enzymes at 37° C. for 1 to 2 hours. […] 40 μl of the generated droplet sample was used for the PCR with the following cycle: 95° C. for 10 mins, 50 cycles of 94° C. for 30 secs, 60° C. for 30 secs and 72° C. for 2 mins and 98° C. for 10 mins. After PCR, the droplets were analyzed using the QX200 Droplet Digital PCR reader (Biorad) and Quantasoft software was used to determine the number of copies of the target and reference DNA in the droplets. The allelic gene targeting efficiency was calculated as the percentage of target DNA copies relative to that of the reference. […]
as §6

A further series concerns CCR5 locus in PSCs. Nature of the series: RNP/AAV6 gene targeting at CCR5 locus, knock-in of two stop codons, PSCs. Conditions: low activity gRNAs sg1 and sg4; 0.5 μM. In kind it is cell-based, human. The procedure: as §4
ICE analysis for quantification of gene editing. ICE CRISPR analysis tool (Synthego) was used to determine the allelic distribution of WT, INDEL and HDR frequencies for gene targeting involving knock-in of short sequences and for calculating the frequency of WT and INDEL alleles for gene targeting involving knock-in of multi-kb sequences. […] Following PCR, the amplicons were detected on agarose gel and purified from the gel using GeneJet Gel Extraction Kit (Thermo Fisher Scientific, cat: K0692). […]

For series [2], the system named is TRAC gene locus in T cells. The conditions noted are these: 0.5 μM; AAV6 MOI 1250 and 2500. The text has this: (FIG. 34d). Next, we tested the effect of compound treatment when titrating down the AAV6 donor amounts for gene targeting at the CCR5 locus. […] For this, we assessed the CD19-CAR knock-in at the TRAC gene locus in T cells using a previously reported gene editing strategy^87 (FIG. 14c).

The next series has as its system HBB locus in PSCs. Nature of the series: RNP/AAV6 gene targeting at HBB locus in PSCs. In kind it is cell-based, human. The conditions noted are these: UBC-GFP-bGHpA knock-in; 0.5 μM. The procedure:
as §2, §3
PSC culture and genome editing. […] Gene targeting efficiency was analyzed at 4-6 days post-editing.
as §5, §6

SMILES strings stand for the structures. Entries after “also recorded” stand apart in the source; their conditions may differ.

Turning to `Cc1cc2ncnn2cc1Nc1ncc2c(n1)n(C1CCOCC1)c(=O)n2C` [AZD7648, 7-methyl-2-((7-methyl-[1,2,4]triazolo[l,5-a]pyridin-6-yl)amino)-9-(tetrahydro-2H-pyran-4-yl)-7,9-dihydro-8H-purin-8-one], the “alleles with INDELs vs untreated” value with CFTR locus in HBECs (CF patient derived HBECs) is listed as “much lower frequency of alleles with INDELs”. The “improvement of frequency of gene targeted (GFP+) cells” value with CFTR locus in HBECs (exon 1 knock-in) was “around 2 fold”. Also, in the series on HSPCs, the “viable cell count vs mock cells” value is “only a small drop in viable cell count”. For the same compound, the “INDELs after gene targeting” value in the series on STING1 locus in HSPCs is “no INDELs”; with CCR5 locus in HSPCs, “INDEL-free HDR”; in the series with CCR5 locus in PSCs, “INDEL-free”. Moreover, in [1], the “improvement of frequency of gene targeted cells” value is on record as “more than 2.5 fold”. For the same compound, the “effect on gene targeting vs untreated” value in the series with HBA1 locus in PSCs is “enhanced the gene targeting significantly”; in the series with HBB locus in PSCs, “enhanced the gene targeting significantly; also recorded: significant improvement”. In addition, in the series on CCR5 locus in B cells, the “enhancement of gene targeting” value is listed as “about 2 fold”. Further, in series [2], the “increase in frequency of CD19-CAR+ T cells vs untreated” value came to 1.4 fold.
